Measurements taken from ChEMBL document CHEMBL5604063, “ASAP - DENV-2 NS2B-NS3 protease fluorescence dose response” (2024).
Where “and” joins values, the source holds several entries; their conditions need not be identical. Equal values may be shown once.

Experiments:
Genome polyprotein [1] = molecular target: T1, Genome polyprotein (dengue virus type 2, UniProt P29990); format: functional, Thailand/16681/1984
Genome polyprotein [2] = molecular target: T1, Genome polyprotein; format: functional, Thailand/16681/1984; remark: listed apart in the source

T1 sequence (P29990 1346-1475 limits assumed): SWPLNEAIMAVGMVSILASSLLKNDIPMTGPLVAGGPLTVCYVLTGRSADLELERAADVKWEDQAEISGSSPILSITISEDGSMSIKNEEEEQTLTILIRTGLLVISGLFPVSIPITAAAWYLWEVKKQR
T1 sequence (P29990 1476-2093 limits assumed): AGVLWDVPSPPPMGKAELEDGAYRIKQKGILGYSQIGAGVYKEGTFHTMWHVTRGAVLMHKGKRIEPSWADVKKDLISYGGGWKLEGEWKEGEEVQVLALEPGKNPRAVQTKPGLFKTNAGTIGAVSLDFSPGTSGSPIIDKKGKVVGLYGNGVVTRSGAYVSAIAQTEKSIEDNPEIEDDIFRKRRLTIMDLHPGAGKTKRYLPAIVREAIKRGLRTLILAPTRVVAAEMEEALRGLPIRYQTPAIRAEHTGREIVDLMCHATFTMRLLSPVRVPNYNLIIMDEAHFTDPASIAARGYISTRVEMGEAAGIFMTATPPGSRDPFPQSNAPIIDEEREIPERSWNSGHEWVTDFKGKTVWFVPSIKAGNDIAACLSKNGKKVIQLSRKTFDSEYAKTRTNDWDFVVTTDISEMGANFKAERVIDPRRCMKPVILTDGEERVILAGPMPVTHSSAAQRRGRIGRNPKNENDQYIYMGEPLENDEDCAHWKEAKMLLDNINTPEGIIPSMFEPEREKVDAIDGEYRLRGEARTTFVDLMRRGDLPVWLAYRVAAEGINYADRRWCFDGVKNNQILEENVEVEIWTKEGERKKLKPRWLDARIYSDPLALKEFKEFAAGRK

Compound | IC50 (Genome polyprotein [1]) | IC50 (Genome polyprotein [2])
Cc1c(C(=O)Nc2cc(C3(C)OCCO3)ccn2)cc(C2CC2)n1C | > 99.5 µM | > 100 µM
Cc1ncc(-c2cc(F)cc(C(=O)Nc3ccc4c(c3)CNC4)c2)o1 | > 99.5 µM | > 100 µM
O=C(Nc1cc2c(cc1Br)CNC2)c1cc(Cl)cc2[nH]ncc12 | > 99.5 µM | > 100 µM
O=C(Nc1cc(-c2cccnc2)ccn1)c1cc2n(n1)CCO2 | > 99.5 µM | > 100 µM
Cc1c(C(=O)Nc2cccc([C@H]3CCOC3)c2)cc(C2CC2)n1C | > 99.5 µM | > 100 µM
O=C(Nc1cc(-c2cccnc2)ccn1)c1csc(C[C@H]2CCNC2)n1 | > 99.5 µM | > 100 µM
O=C(Nc1cc(-c2cccnc2)ccn1)c1nc(C2CC2)co1 | > 99.5 µM | > 100 µM
CNC(=O)[C@H](Nc1cc(Cl)cc2[nH]ncc12)c1ccc2c(c1)CNC2 | > 99.5 µM | > 100 µM
Cn1cc(C(F)(F)F)nc1C(=O)Nc1cc(-c2cccnc2)ccn1 | > 99.5 µM | > 100 µM
Cc1c(C(=O)Nc2cc(-c3cccnc3)ccn2)cc(C2CCCC2)n1C | > 99.5 µM | > 100 µM
C=CC[C@H]1NCc2cc(N[C@H](C(=O)NC(C)C)c3cccc4[nH]ncc34)ccc21 | > 99.5 µM | > 100 µM
COCCNC(=O)[C@H](Nc1cccc([C@H]2CCOC2)c1)c1cc(Cl)cc2[nH]ncc12 | > 99.5 µM | > 100 µM
O=C(Nc1cc(-c2cccnc2)ccn1)c1csc(C[C@H]2CCCNC2)n1 | > 99.5 µM | > 100 µM
O=C(Nc1ccc2c(c1)CNC2)c1cc(Cl)cc2[nH]c(-c3nc4c(s3)CCC4)nc12 | 16.4 µM | > 100 µM
CC(C)n1cc(C(=O)Nc2cc(-c3cccnc3)ccn2)c2ccccc21 | > 99.5 µM | > 100 µM
Cn1nc(C(=O)Nc2cc(-c3cccnc3)ccn2)cc1C1CC1 | > 99.5 µM | > 100 µM
O=C(Nc1ccc2c(c1)CNC2)c1cc(Cl)cc2[nH]c(-c3ccc(F)cc3O)nc12 | 23.8 µM | 60.1 µM
O=C(Nc1cc(-c2cccnc2)ccn1)c1cccc(C2CC2)c1 | > 99.5 µM | > 100 µM
CCOC(=O)c1csc([C@H]2CCCN2C(=O)Nc2ccc3c(c2)CNC3)n1 | > 99.5 µM | > 100 µM
CNC(=O)[C@H](Nc1ccc2c(c1)CNC2)c1cccc2[nH]c(C(F)(F)F)nc12 | > 99.5 µM | > 100 µM
Cc1c(C(=O)Nc2cc(-c3cccnc3)ccn2)cc(C(C)C)n1C | > 99.5 µM | > 100 µM
O=C(NCC(F)F)[C@H](Nc1ccc2c(c1)CNC2)c1cc(F)cc2[nH]ccc12 | > 99.5 µM | > 100 µM

Compound | IC50 (Genome polyprotein [1]) | IC50 (Genome polyprotein [2])
O=C(Nc1ccc2c(c1)CNC2)c1cc(Cl)cc2[nH]c(-c3cn[nH]c3)cc12 | > 99.5 µM | > 100 µM
Cc1c(C(=O)Nc2cc(-c3cccnc3)ccn2)cc(C2CCCCC2)n1C | > 99.5 µM | > 100 µM
c1cc([C@@H]2C[C@H]2c2ccc3c(c2)CNC3)c2cn[nH]c2c1 | > 99.5 µM | > 100 µM
O=C(Nc1ccc2c(c1)CNC2)c1cc(Cl)cc2[nH]c(COc3ccccn3)nc12 | > 99.5 µM | 20.1 µM and 16.8 µM
Cc1c(C(=O)Nc2cc(C3CCOCC3)ccc2F)cc(C2CC2)n1C | > 99.5 µM | > 100 µM
O=C(Nc1cc(-c2cccnc2)ccn1)c1cnn2c1CCC2 | > 99.5 µM | > 100 µM
O=C(NCCC1CC1)[C@H](Nc1ccc2c(c1)CNC2)c1cc(Cl)cc(C2CC2)c1 | > 99.5 µM | > 100 µM
Cc1c(C(=O)NCc2ccnc(OC3CCOCC3)c2)cc(C2CC2)n1C | > 99.5 µM | > 100 µM
O=C1Cc2c(C(=O)Nc3ccc4c(c3)CNC4)ccnc2N1 | > 99.5 µM | > 100 µM
Cc1c(C(=O)NCc2cccc(C3COC3)c2)cc(C2CC2)n1C | > 99.5 µM | > 100 µM
O=C(Nc1cc([C@H]2CCOC2)ccn1)c1cc(Cl)cc2c1CCC2 | > 99.5 µM | > 100 µM
O=C(Nc1ccc2c(c1)CNC2)c1cc(Cl)cc2[nH]c(CN3CCCC3=O)cc12 | > 99.5 µM | > 100 µM
Cc1c(C(=O)Nc2cc(-c3cccnc3)ccn2)cc(-c2ccccc2)n1C | > 99.5 µM | > 100 µM
O=C(Nc1ccc2c(c1)C(=O)OC2)c1ccc2c(c1)CNC2 | > 99.5 µM | > 100 µM
O=C(Nc1ccc2c(c1)CS(=O)(=O)C2)c1cc(Cl)cc2[nH]ncc12 | > 99.5 µM | > 100 µM
COc1ccc(-c2nc3c(C(=O)Nc4ccc5c(c4)CNC5)cc(Cl)cc3[nH]2)cc1 | 21.5 µM | 39.5 µM and 40.3 µM
Cc1c(C(=O)Nc2cc(SC3COC3)ccn2)cc(C2CC2)n1C | > 99.5 µM | > 100 µM
O=C(Nc1ccc2c(c1)CNC2)c1cc(F)cc(-c2cccnc2)c1 | > 99.5 µM | > 100 µM
O=C(Nc1cc(-c2cccnc2)ccn1)c1csc(C2CC2)n1 | > 99.5 µM | > 100 µM
O=C(Nc1ccc2c(c1)CNC2)c1cc(Cl)cc2[nH]c(-c3cnccc3O)nc12 | 37.1 µM | > 100 µM
O=C(Nc1cc(Br)c2c(c1)CNC2)c1cc(F)cc2[nH]ncc12 | 40.4 µM | 30.6 µM and 22.5 µM
O=C(Nc1ccc2c(c1)CNC2)c1cc(C(F)(F)F)c2cn[nH]c2n1 | > 99.5 µM | > 100 µM

Compound | IC50 (Genome polyprotein [1]) | IC50 (Genome polyprotein [2])
O=C(NCC(F)F)[C@H](Nc1ccc2c(c1)CNC2)c1cc(F)cc2[nH]ncc12 | > 99.5 µM | 78.2 µM
O=C1OCc2ccc(NC(=O)[C@H]3CCNC3)cc21 | > 99.5 µM | > 100 µM
Cc1oc(C2CC2)nc1C(=O)Nc1cc(-c2cccnc2)ccn1 | > 99.5 µM | > 100 µM
C=CC[C@H]1NCc2cc(N[C@H](C(=O)NC(C)C)c3cc(Cl)cc4[nH]ncc34)ccc21 | 63.9 µM | 56.9 µM
Cc1c(C(=O)Nc2cccc(-c3cccnc3)c2)cc(C2CC2)n1C | > 99.5 µM | > 100 µM
CNC(=O)[C@H](Nc1cccc([C@H]2CCOC2)c1)c1cc(C2CC2)n(C)n1 | > 99.5 µM | > 100 µM
NCc1cc(Cl)cc(C(=O)Nc2cc([C@H]3CCOC3)ccn2)c1 | > 99.5 µM | > 100 µM
CC1=C(c2cc(NC(=O)c3cc(Cl)cc4[nH]ncc34)cc3c2CNC3)CCC1=O | > 99.5 µM | > 100 µM
Cc1c(C(=O)Nc2cc(-c3cccnc3)ccn2)cc(C(C)(C)C)n1C | > 99.5 µM | > 100 µM
Cn1c(C2CC2)cc(C(=O)Nc2cc(-c3cccnc3)ccn2)c1C1CC1 | > 99.5 µM | > 100 µM
Cc1c(C(=O)Nc2ccnc(O[C@H]3CCOC3)c2)cc(C2CC2)n1C | > 99.5 µM | > 100 µM
O=C(Nc1cc(-c2cccnc2)ccn1)c1cc(C2CC2)no1 | > 99.5 µM | > 100 µM
O=C(Nc1cc2c(c(C3=CC[C@H](O)CC3)c1)CNC2)c1cc(Cl)cc2[nH]ncc12 | 69.5 µM | > 100 µM
Cn1nc(C2CC2)cc1C(=O)Nc1cc(-c2cccnc2)ccn1 | > 99.5 µM | > 100 µM
COCCNC(=O)[C@H](Nc1cccc([C@H]2CCOC2)c1)c1cc(F)cc2[nH]ccc12 | > 99.5 µM | > 100 µM
CNC(=O)[C@H](Nc1ccc2c(c1)CNC2)c1cc(Cl)cc2c1OCC2 | > 99.5 µM | > 100 µM
CC(C)NC(=O)[C@H](Nc1ccc2c(c1)CNC2)c1cc(F)cc2[nH]ccc12 | > 99.5 µM | > 100 µM
O=C(Nc1cc(-c2cccnc2)ccn1)c1cnc(C2CC2)s1 | > 99.5 µM | > 100 µM
NS(=O)(=O)c1cc(F)cc(C(=O)Nc2ccc3c(c2)CNC3)c1 | > 99.5 µM | > 100 µM
Cc1nnc(SC[C@H]2CCCN2C(=O)Nc2ccc3c(c2)CNC3)s1 | > 99.5 µM | > 100 µM
O=C(Nc1ccc2c(c1)CNC2)c1ccc2ccncc2c1 | > 99.5 µM | > 100 µM
O=C1Cc2cc(C(=O)Nc3ccc4c(c3)CNC4)c(Cl)cc2N1 | > 99.5 µM | 35.9 µM and 22.7 µM

Compound | IC50 (Genome polyprotein [1]) | IC50 (Genome polyprotein [2])
O=C(Nc1ccc2c(c1)CNC2)c1cc(F)cc2c1CCNC2 | > 99.5 µM | > 100 µM
O=C(Nc1ccc2c(c1)CNC2)c1cc(Br)cc2c1nc1n2CCCC1 | 23.8 µM | 47.5 µM and 35.2 µM
O=C(Nc1ccc2c(c1)CNC2)c1n[nH]c2ccc(F)cc12 | > 99.5 µM | 78.7 µM
O=C(Nc1ccc2c(c1)CNC2)c1cc(F)cc(-c2ccnn2CC2CC2)c1 | > 99.5 µM | > 100 µM
Fc1cc(CNc2ccc3c(c2)CNC3)c2cn[nH]c2c1 | > 99.5 µM | > 100 µM
O=C(Nc1cc(-c2cccnc2)ccn1)c1cc(C2CC2)[nH]n1 | > 99.5 µM | > 100 µM
O=C(Nc1cc(-c2cccnc2)ccn1)c1cc2n(n1)CCS2(=O)=O | > 99.5 µM | > 100 µM
Cn1nc(C(=O)Nc2cc([C@H]3CCOC3)ccn2)cc1C1CC1 | > 99.5 µM | > 100 µM
O=C1OCc2ccc(NC(=O)c3cc(F)cc4c3CCNC4)cc21 | > 99.5 µM | > 100 µM
Cc1c(C(=O)Nc2cccc(-c3ccccc3)c2)cc(C2CC2)n1C | > 99.5 µM | > 100 µM
Cc1c(C(=O)Nc2cccc(C3CCOCC3)c2)cc(C2CC2)n1C | > 99.5 µM | > 100 µM
O=C(Nc1cc(-c2cccnc2)ccn1)c1coc(C2CC2)n1 | > 99.5 µM | > 100 µM
N#Cc1cccc(-c2nc3c(C(=O)Nc4ccc5c(c4)CNC5)cc(Cl)cc3[nH]2)c1 | 1.76 µM and 2.66 µM | 17.3 µM and 12.2 µM
Cc1c(C(=O)Nc2cc(-c3cccnc3)ccn2)cc(C2CCC2)n1C | > 99.5 µM | > 100 µM
O=C(Nc1cc(-c2cccnc2)ccn1)c1cc2n(n1)CC(F)(F)C2 | > 99.5 µM | > 100 µM
O=C(Nc1ccc2c(c1)CNC2)c1cc(F)cc(-c2cnc(C3CC3)s2)c1 | > 99.5 µM | > 100 µM
O=C(Nc1cc(-c2cccnc2)ccn1)c1cc2n(n1)CC1(CC1)C2 | > 99.5 µM | > 100 µM
Nc1nc2c(Br)cc(C(=O)Nc3ccc4c(c3)CNC4)cc2s1 | 28.2 µM | 51.9 µM and 37.3 µM
Cn1nc(C(F)(F)F)cc1C(=O)Nc1cc(-c2cccnc2)ccn1 | > 99.5 µM | > 100 µM
Cc1c(C(=O)Nc2cc(-c3ccccc3)ccn2)cc(C2CC2)n1C | > 99.5 µM | > 100 µM
